Marks after values point to notes of the source that are not given here.
Columns and labels:
[1] = target: BSA protein glycation (Bos taurus, UniProt P02769); experiment: Anti-glycation assay; format: biochemical, Bovine; settings: BSA + dextrose, 9 days at 37 °C, mean ± SD of triplicate
[2] = target: Aβ42 (Homo sapiens, UniProt P05067); experiment: ThT assay of inhibition of Aβ aggregation; format: biochemical
Sequence of Aβ42 (P05067 672-713): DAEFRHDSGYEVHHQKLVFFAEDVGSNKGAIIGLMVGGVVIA

Sequence of BSA protein glycation (P02769 25-607): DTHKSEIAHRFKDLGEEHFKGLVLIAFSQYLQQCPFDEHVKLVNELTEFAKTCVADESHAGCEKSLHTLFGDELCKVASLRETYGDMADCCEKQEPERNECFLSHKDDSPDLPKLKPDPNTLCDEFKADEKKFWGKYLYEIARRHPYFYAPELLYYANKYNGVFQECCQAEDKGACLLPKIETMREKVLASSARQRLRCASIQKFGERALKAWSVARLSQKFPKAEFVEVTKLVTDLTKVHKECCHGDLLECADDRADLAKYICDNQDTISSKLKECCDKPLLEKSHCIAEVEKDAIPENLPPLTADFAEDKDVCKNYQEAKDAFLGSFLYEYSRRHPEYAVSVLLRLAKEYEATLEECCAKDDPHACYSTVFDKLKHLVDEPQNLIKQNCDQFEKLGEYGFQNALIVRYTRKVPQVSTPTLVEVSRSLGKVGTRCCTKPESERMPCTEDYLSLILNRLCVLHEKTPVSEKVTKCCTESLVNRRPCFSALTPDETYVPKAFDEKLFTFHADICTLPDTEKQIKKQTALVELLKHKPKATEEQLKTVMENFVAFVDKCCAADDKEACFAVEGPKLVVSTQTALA

Row | IC50 [2] [µM] | SMILES | Half-maximal inhibitory (IC50) values Protein glycation [1]
1 |  | N=C(N)NN [Aminoguanidine] | 15.27 ± 0.37^b μg/mL
2 | 94.7 | O=S1(=O)OC(c2ccc(O)cc2)(c2ccc(O)cc2)c2ccccc21 [Phenol Red] | 
